Reference: publication PMC10018782, “Citrus β-carotene hydroxylase 2 (BCH2) participates in xanthophyll synthesis by catalyzing the hydroxylation of β-carotene and compensates for BCH1 in citrus carotenoid metabolism” (Horticulture Research, 2022)

Key:
Assay in all cases: functional complementation in beta-carotene-accumulating E. coli, HPLC of carotenoids
Assay type in all cases: cell-based
Conditions in all cases: E. coli BL21(DE3) with pACCAR16ΔcrtX, 16 °C, 16 h
[1] = target: T1, CsBCH1 (Citrus sinensis, UniProt Q0QVY5)
T1 construct: gene Chyb; full ORF in pHIS8 (His tag), E. coli BL21(DE3)
T1 sequence (Q0QVY5 1-311): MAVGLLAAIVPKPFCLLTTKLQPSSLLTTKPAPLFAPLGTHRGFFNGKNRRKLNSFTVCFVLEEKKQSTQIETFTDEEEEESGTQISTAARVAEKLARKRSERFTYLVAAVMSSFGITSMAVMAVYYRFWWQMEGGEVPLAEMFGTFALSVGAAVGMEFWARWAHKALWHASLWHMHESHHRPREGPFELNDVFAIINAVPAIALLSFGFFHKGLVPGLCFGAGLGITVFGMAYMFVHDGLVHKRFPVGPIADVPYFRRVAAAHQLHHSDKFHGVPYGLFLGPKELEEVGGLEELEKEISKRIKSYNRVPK

[2] = target: T2, CsBCH2b (Citrus sinensis, UniProt A0ACB8LPZ5)
T2 construct: gene KPL71_006397; full ORF in pHIS8 (His tag), E. coli BL21(DE3); allele found in pummelo and sweet orange, two non-synonymous sites versus CsBCH2a

[3] = target: T3, CsBCH2a (Citrus sinensis, UniProt A0ACB8LPZ5)
T3 construct: gene KPL71_006397; full ORF in pHIS8 (His tag), E. coli BL21(DE3); allele identical in mandarin and sweet orange, two non-synonymous sites versus CsBCH2b
T3 sequence (A0ACB8LPZ5 entry or part of it): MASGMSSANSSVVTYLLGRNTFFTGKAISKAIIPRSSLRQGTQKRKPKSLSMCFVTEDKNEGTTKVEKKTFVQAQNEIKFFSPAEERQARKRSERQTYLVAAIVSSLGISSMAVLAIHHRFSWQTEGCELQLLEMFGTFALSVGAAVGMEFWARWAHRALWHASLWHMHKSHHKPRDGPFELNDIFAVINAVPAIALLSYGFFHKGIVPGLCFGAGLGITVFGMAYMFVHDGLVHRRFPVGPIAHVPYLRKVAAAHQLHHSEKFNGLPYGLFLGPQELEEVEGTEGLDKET

T2 sequence (A0ACB8LPZ5 entry or part of it): as above

SMILES | functional complementation in beta-carotene-accumulating E. coli, HPLC of carote [1] | functional complementation in beta-carotene-accumulating E. coli, HPLC of carote [2] | functional complementation in beta-carotene-accumulating E. coli, HPLC of carote [3] | functional complementation in beta-carotene-accumulating E. coli, HPLC of carote ([1]; intermediate formed in the cells, hydroxylated on to zeaxanthin)
CC1=C(/C=C/C(C)=C/C=C/C(C)=C/C=C/C=C(C)/C=C/C=C(C)/C=C/C2=C(C)CCCC2(C)C)C(C)(C)CCC1 [β-carotene] | CsBCH1 effectively hydroxylated the two β-rings of β-carotene | CsBCH2a and CsBCH2b hydroxylated β-carotene to generate only β-cryptoxanthin in E. coli | CsBCH2a and CsBCH2b hydroxylated β-carotene to generate only β-cryptoxanthin in E. coli | 
CC1=C(/C=C/C(C)=C/C=C/C(C)=C/C=C/C=C(C)/C=C/C=C(C)/C=C/C2=C(C)C[C@@H](O)CC2(C)C)C(C)(C)CCC1 [β-cryptoxanthin] |  |  |  | mono-hydroxylated intermediate β-cryptoxanthin and the di-hydroxylated product zeaxanthin
